According to US20030125234A1, “Alteration of protein stability” (priority 2001, published 2003):

Legend:
Type in all cases: biochemical
[1] = biological target: T1, porcine heart citrate synthase (CS) (Sus scrofa, UniProt P00889); test: Citrate synthase thermal aggregation (turbidity at 360 nm); details: for inhibition index: CS 96 μg/mL, 45° C., standard deviation in parenthesis
T1 construct: porcine heart citrate synthase (CS); from tissue; host or cells: porcine heart
T1 sequence (P00889 28-464): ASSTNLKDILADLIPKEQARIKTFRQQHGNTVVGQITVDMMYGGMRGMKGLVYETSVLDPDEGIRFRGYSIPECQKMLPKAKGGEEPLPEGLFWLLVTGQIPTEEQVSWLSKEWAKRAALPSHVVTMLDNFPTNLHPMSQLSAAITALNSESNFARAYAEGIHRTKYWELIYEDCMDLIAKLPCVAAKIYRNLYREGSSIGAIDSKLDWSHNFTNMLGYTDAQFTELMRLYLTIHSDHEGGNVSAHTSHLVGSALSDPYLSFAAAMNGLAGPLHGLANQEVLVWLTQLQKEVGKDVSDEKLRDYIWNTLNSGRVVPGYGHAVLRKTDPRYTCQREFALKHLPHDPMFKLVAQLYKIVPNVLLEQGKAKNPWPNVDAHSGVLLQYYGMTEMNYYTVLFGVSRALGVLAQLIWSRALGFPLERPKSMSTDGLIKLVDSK
Description: (§1) Bovine insulin [Sigma, St. Louis, Mo., USA] was dissolved in phosphate saline (PBS) (50 mM sodium biphosphate, 100 mM sodium chloride), pH 7.0, bovine alpha-lactalbumin [Sigma] in 50 mM sodium phosphate, 100 mM sodium chloride and 2 mM EDTA, pH 6.2, chicken egg white lysozyme [Sigma] in 100 mM Tris, 1 mM EDTA, pH 8.2, human acidic fibroblast growth factor (FGF-1) in 6.2 mM sodium biphosphate, 120 mM sodium chloride, pH 7.2, porcine somatotropin (pST) [provided by Pfizer, Inc., Groton, Conn., USA] in 10 mM phosphate, pH 6. 1, human apolactoferrin (HLF) [Sigma] in 20 mM HEPES, 154 mM NaCl, pH 7.4, porcine heart citrate synthase (CS) in 40 mM HEPES, 50 mM KCl, 10 mM (NH4)2SO4 mM potassium acetate, pH 7.8, and yeast alcohol dehydrogenase (ADH) [Sigma] in pH 7.0 PBS. Selection of buffer solutions was based on an extensive series of preliminary studies to obtain appropriate insolubilization kinetics as described below.
(§2) The following compounds were obtained from Sigma and used without further purification: oxalic acid, sodium malonate, succinic acid, glutaric acid, adipic acid, pimelic acid, suberic acid, azelaic acid, guanidine hydrochloride, ammonium formate, beta-alanine, 4-aminobutyric acid, 5-aminovaleric acid, 6-aminocaproic acid, 7-aminoheptanoic acid, hydrazine, ethylenediamine, 1,3-diaminopropane, 1,4-diaminobutane, 1,5-diaminopentane, 1,6-diaminohexane, 1,7-diaminoheptane, Glu-Glu, Glu-Lys, Lys-Lys, diglycine, triglycine, tetraglycine, pentaglycine, and hexaglycine. […] Triglycine and tetraglycine were dissolved in pH 8.6 PBS, while pentaglycine and hexaglycine were dissolved in pH 10.6 PBS.
(§3) Each was either dissolved in pH 7.0 PBS, or pH 6.1 10 mM phosphate, and adjusted to the same pH.
(§4) Protein aggregation was monitored for 1 hour at 360 nm using an HP8453 UV-visible spectrophotometer system [Hewlett Packard, Germany]. […] Insulin (0.25 mg/mL (4.39E-5 M)) aggregation was monitored at 25° C. after addition of potential inhibitors and 20 μL of 1 M DTT (1.27E-4 M). Alpha-lactabumin (0.4 mg/mL (2.82E-5 M)) aggregation was monitored at 37° C. in the presence of 20 μL of 1 M DTT (1.27E-4 M). Lysozyme (0.4 mg/mL (2.86E-5 M)) aggregation was monitored at 25° C. in the presence of 20 μL of 1 M DTT (1.27E-4 M). FGF-1 (50 μg/mL (3.12E-6 M)) aggregation was monitored at 50° C. Porcine somatotropin (1.27 mg/mL (5.76E-5 M)) aggregation was monitored at 60° C. in the presence of PEG 8000 (20 mg/mL) which was included to enhance the protein association process through a simple exclusion volume effect. HLF (0.4 mg/mL (5.23E-6 M)) aggregation was monitored at 43° C. in the presence of 1.27E-4 M DTT. Citrate synthase (96 μg/mL (9.80E-7 M)) aggregation was monitored at45° C. ADH (1 mg/mL (7.14E-6 M)) was monitored at 37° C. following the addition of 7.76E-5 M Cu(OP)2. Aggregation was compared to protein in the absence of the particular dipolar compound. After stirring, experiments were initiated by the addition of proteins followed by stressing reagents to 1 cm pathlength cuvettes employing a seven-position thermostatted sample holder that was cycled at 30-second intervals. Alternatively, a microtiter plate reader was employed under the same conditions in a 96 well format.
(§5) All optical density (OD)360nm versus time results were exported into Excel [Microsoft] for data analysis. […] The maximum rate of change in OD versus time plots (r) was used to determine the rate of the reaction from the slope at this point.

[2] = biological target: T2, yeast alcohol dehydrogenase (ADH) (Saccharomyces cerevisiae, UniProt P00330); test: ADH oxidation-induced aggregation (turbidity at 360 nm), Cu(OP)2; details: for inhibition index: ADH 1 mg/mL, 37° C., Cu(OP)2
T2 construct: purchased Sigma
T2 sequence (P00330 2-348 limits assumed): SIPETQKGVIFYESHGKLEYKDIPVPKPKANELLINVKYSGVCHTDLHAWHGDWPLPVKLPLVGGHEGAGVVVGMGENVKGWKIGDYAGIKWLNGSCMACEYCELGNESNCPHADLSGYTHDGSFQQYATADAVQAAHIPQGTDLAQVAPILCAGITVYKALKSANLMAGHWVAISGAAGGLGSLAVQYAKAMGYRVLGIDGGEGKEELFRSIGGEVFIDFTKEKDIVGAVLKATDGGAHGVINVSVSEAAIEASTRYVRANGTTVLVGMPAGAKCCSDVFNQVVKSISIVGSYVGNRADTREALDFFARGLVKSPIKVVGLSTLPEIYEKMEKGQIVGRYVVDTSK
Description: as §1
(§6) Copper O-phenanthroline (1,10-phenanthroline) was prepared by mixing copper sulfate hexahydrate [Fisher] and o-phenanthroline [Sigma] in a 1:2 ratio. 1 M Dithiothreitol (DTT) was prepared at pH 7.0 PBS. Polyethylene glycol (M.W. 8000, Union Carbide, Danbury, Conn., USA) (PEG) was prepared at 20 mg/mL in 10 mM phosphate, pH 6.1.
as §2, §3, §4
(§7) All optical density (OD)360nm versus time results were exported into Excel [Microsoft] for data analysis.

bovine alpha-lactalbumin = biological target: T3, bovine alpha-lactalbumin (Bos taurus, UniProt P00711); test: Alpha-lactalbumin aggregation (turbidity at 360 nm) induced by DTT; details: α Lactalbumin 0.4 mg/mL, 37° C., DTT; compound 1,000×; standard deviation in parenthesis
T3 construct: purchased Sigma
T3 sequence (P00711 20-142): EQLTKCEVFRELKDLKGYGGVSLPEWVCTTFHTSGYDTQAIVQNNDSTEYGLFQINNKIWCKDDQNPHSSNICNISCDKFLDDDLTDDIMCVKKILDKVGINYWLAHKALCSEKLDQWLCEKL
Description: as §1, §6, §2, §3, §4, §7

Bovine insulin = biological target: T4, Bovine insulin (Bos taurus, UniProt P01317); test: Insulin aggregation (turbidity at 360 nm) induced by DTT; details: Insulin 0.25 mg/mL, 25° C., DTT; compound 100×; standard deviation in parenthesis
T4 construct: purchased Sigma, St. Louis, Mo., USA
T4 sequence (P01317 25-54 limits assumed): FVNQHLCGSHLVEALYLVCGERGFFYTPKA
T4 sequence (P01317 85-105 limits assumed): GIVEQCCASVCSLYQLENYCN
Description: as §1, §6, §2, §3, §4, §7

[3] = biological target: T5, chicken egg white lysozyme (Gallus gallus, UniProt P00698); test: Lysozyme aggregation (turbidity at 360 nm) induced by DTT; details: Lysozyme 0.4 mg/mL, 25° C., DTT; compound 1,000×; standard deviation in parenthesis
T5 construct: chicken egg white lysozyme [Sigma]; purchased Sigma; host or cells: egg white
T5 sequence (P00698 19-147): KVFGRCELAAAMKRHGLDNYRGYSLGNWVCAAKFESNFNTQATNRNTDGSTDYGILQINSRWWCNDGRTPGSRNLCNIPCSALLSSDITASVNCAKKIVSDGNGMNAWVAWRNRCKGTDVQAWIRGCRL
Description: as §1, §6, §2, §3, §4, §7

[4] = biological target: human acidic fibroblast growth factor (FGF-1) (Homo sapiens, UniProt P05230); test: FGF-1 thermal aggregation (turbidity at 360 nm); details: FGF-1 50 μg/mL, 50° C., standard deviation in parenthesis
human acidic fibroblast growth factor (FGF-1), sequence (P05230 whole entry): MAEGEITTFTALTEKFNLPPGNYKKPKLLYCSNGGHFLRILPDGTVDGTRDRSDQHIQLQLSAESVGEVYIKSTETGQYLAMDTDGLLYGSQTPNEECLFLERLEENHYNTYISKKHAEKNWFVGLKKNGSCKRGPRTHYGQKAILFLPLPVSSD
Description: as §1, §2, §3, §4, §5

[5] = biological target: T6, human apolactoferrin (HLF) (Homo sapiens, UniProt P02788); test: HLF aggregation (turbidity at 360 nm) induced by DTT; details: HLF 0.4 mg/mL, 43° C., DTT, head 10,000×, standard deviation in parenthesis
T6 construct: purchased Sigma
T6 sequence (P02788 20-710): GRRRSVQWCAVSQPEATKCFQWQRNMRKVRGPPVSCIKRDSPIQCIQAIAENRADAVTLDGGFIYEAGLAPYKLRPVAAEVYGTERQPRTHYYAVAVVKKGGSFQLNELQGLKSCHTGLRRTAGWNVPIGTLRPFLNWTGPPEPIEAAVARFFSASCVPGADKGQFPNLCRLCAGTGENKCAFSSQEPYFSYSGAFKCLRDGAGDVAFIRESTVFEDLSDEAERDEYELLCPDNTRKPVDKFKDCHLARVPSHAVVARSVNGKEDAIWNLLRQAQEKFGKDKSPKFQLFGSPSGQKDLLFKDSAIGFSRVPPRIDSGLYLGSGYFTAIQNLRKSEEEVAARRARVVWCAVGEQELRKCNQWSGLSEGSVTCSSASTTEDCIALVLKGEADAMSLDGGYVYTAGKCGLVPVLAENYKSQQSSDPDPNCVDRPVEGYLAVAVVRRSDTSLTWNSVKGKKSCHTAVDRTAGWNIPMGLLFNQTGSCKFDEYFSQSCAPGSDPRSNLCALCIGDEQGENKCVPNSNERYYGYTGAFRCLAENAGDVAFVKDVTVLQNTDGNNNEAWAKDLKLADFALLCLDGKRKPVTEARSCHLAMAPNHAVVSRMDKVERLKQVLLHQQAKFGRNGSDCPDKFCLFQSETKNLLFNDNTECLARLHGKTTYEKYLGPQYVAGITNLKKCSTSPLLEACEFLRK
Description: as §1, §6, §2, §3, §4, §7

[6] = biological target: T7, porcine somatotropin (pST) (Sus scrofa, UniProt P01248); test: Porcine somatotropin aggregation (turbidity at 360 nm) with PEG 8000; details: pST 1.27 mg/mL, 60° C., standard deviation in parenthesis
T7 construct: purchased Pfizer, Inc., Groton, Conn., USA (provided, not bought)
T7 sequence (P01248 27-216): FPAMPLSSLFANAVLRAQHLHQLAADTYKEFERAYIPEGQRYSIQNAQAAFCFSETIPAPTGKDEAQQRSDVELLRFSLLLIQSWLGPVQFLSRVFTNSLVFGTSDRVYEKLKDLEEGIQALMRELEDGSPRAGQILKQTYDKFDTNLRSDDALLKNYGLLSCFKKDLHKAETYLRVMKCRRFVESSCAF
Description: as §1, §6, §2, §3, §4, §7

[7] = compound 10,000X molar excess, Infinite = complete inhibition of aggregation over one hour
[8] = compound 1,000X, standard deviation in parenthesis

Compound	inhibition index ([1]; compound 10,000X)	inhibition index ([1]; compound 50,000X)	inhibition index [2, 7]	inhibition index (bovine alpha-lactalbumin)	inhibition index (Bovine insulin)	inhibition index [3]	inhibition index ([4]; compound 1,000×)	inhibition index ([4]; compound 10,000×)	inhibition index ([5]; second HLF column)	inhibition index ([1]; compound 1,000X)	inhibition index [2, 8]	inhibition index ([5]; first HLF column)	inhibition index ([6]; compound 100X)	inhibition index ([6]; compound 2,000X)	inhibition of citrate synthase aggregation, in words [1]	inhibition of ADH aggregation, in words ([2]; FIG. 1)
N.O=CO [ammonium formate]	0.6 (0.0)	1.2 (0.3)	1.2 (0.1)	0.8 (0.3)	1.2 (0.5)	1.5 (0.3)	0.9 (0.1)	1.3 (0.3)	5.8 (1.1)	–	–	–	–	–	–	–
Cl.N=C(N)N [guanidine HCl, guanidine hydrochloride]	0.6 (0.4)	0.4 (0.1)	0.2 (0.1)	1.7 (0.6)	0.9 (0.4)	0.9 (0.2)	1.2 (0.2)	2.8 (0.9)	0.9 (0.1)	–	–	–	–	–	–	–
CH3—NH2-(Glu)^−-(Gly)n-(Glu)^−-COO^− [CH3—NH2—(E)^−—(G)4—(E)^−—COO^−]	–	–	–	0.7 (0.4)	1.4 (0.6)	0.9 (0.3)	1.6 (0.2)	–	–	0.7 (0.1)	1.4 (0.1)	1.7 (0.3)	–	–	–	–
CH3—NH2-(Glu)^−-(Gly)n-(Glu)^−-COO^− [CH3—NH2—(E)^−—(G)5—(E)^−—COO^−]	–	–	–	–	1.3 (0.1)	0.1 (0.1)	12.3 (0.4)	–	–	0.6 (0.1)	1.2 (0.1)	1.6 (0.1)	–	–	–	–
O=C(O)CCCCCCCC(=O)O [azelaate, azelaic acid]	0.7 (0.6)	4.4 (1.8)	–	2.3 (0.6)	1.5 (0.4)	1.0 (0.2)	1.9 (0.2)	6.1 (2.6)	1455.0	–	–	–	0.6 (0.0)	1.3 (0.3)	–	–
^+NH3-(Lys)^+-(Gly)n-(Lys)^+-CONH2 [^+NH3—(K)^+—(G)1—(K)^+—CONH2]	–	–	–	0.5 (0.2)	0.9 (0.1)	0.9 (0.2)	2.3 (0.4)	–	–	1.0 (0.3)	1.2 (0.1)	1.5 (0.2)	–	–	–	–
Glu-Lys	1.6 (0.2)	21.5	18.4	1.0 (0.1)	1.0 (0.1)	1.0 (0.4)	1.6 (0.3)	11.0 (3.0)	44.5	0.8 (0.2)	1.7 (0.1)	9.8 (0.3)	–	–	Potent inhibitors	–
^+NH3-(Lys)^+-(Gly)n-(Lys)^+-CONH2 [^+NH3—(K)^+—(G)3—(K)^+—CONH2]	–	–	–	0.8 (0.1)	0.9 (0.3)	1.2 (0.7)	1.5 (0.4)	–	–	0.6 (0.1)	1.2 (0.1)	2.1 (0.1)	–	–	–	–
CH3—NH2-(Glu)^−-(Gly)n-(Glu)^−-COO^− [CH3—NH2—(E)^−—(G)2—(E)^−—COO^−]	–	–	–	0.4 (0.2)	1.0 (0.2)	0.8 (0.4)	2.5 (0.6)	–	–	0.9 (0.2)	1.1 (0.1)	1.7 (0.2)	–	–	–	–
[Cl-].[Na+] [NaCl]	–	–	–	–	–	–	–	–	–	–	–	–	–	–	–	negligible effect on aggregation
